Like-named read-outs stand apart in the source and are kept apart here.
Legend:
[1] = molecular target: T1, cloned α1b-adrenoceptor subtype (Homo sapiens, UniProt P35368); assay: Radioligand binding assay ([3H]prazosin), cloned α1b-adrenoceptor subtype; conditions: read-out: Binding Affinity (Ki nM) α1b
T1 construct: expressed in transfected cells
T1 sequence (P35368 1-520): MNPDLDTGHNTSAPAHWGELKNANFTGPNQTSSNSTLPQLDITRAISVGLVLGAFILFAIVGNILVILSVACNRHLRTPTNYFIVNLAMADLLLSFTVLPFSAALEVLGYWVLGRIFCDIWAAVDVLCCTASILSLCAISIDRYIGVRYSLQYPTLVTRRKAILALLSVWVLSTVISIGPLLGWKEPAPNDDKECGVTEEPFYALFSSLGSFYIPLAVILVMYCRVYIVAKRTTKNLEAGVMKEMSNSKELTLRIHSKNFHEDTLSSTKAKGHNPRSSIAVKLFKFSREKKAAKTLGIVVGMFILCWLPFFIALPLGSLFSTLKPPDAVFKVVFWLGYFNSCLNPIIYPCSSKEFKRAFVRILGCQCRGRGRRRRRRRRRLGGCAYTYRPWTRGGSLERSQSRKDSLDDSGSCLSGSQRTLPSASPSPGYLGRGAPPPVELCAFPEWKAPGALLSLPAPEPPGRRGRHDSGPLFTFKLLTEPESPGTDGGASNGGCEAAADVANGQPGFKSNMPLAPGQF
Method: (§1) Springer-Verlag, pp. 10-12). […] The results from these assays are used to calculate a measure of receptor selectivity, expressed as the ratio of affinities (Ki) for a given pair of receptors.
(§2) Determination of affinity for cloned subtypes of α1-adrenoceptor subtypes was performed in membranes from cells transfected by electroporation with DNA expressing the genes encoding each α1-adrenoceptor subtype.
(§3) Non-specific binding was determined in the presence of 10 μM phentolamine. Incubation was stopped by addition of ice-cold Tris buffer and rapid filtration through 0.2% polyethyleneimine-pretreated Schleicher & Schuell GF52 filters. […] Data were expressed as mean Ki.

[2] = test system: conscious rats with partial urethral obstruction; assay: Cystometry in conscious rats obstructed by partial urethra ligature (unstable-bladder contractions); assay type: in vivo, rat; conditions: for inhibition in vivo at 1 mg/kg / inhibition in vivo at 0.3 mg/kg / inhibition in vivo at 3 mg/kg / inhibition in vivo at 0.1 mg/kg: 2 min; for Amplitude of non-effective micturition contractions, After Treat. / Frequency (number) of non-effective micturition contractions, After Treat.: after treatment; for Activity as inhibitors of unstable-bladder contractions (in words): obstructed conscious rats, summary of Tables 1 and 2
Description: A useful animal model system for measuring such pharmacological activity is, without limitation, cystometry in conscious rats with partial bladder-neck obstruction. […] This model is reported in the literature as related to LUTS occurring in patients having obstructive urethral syndromes (Michel, 2000, Drugs of Today. 386 (Supp. B2): 3-6)
In order to obtain a partial obstruction of the urethra, the method previously reported by Malgren (Nalgren et al., 1987, J. Urol. 137:1291-1294; 1988, Neurourol. Urodyn. 6:371), was followed with minor modifications (Guarneri et al., 1991, Pharmacol. Res. 24:263).
Female rats of the Sprague-Dawley strain [Crl:CD(SD)BR, from Charles River Italia, Calco, Como, Italy] weighing 225-275 g were used. The animals were maintained in constant temperature and humidity conditions, on a forced 12-hour light-dark cycle and with food and water ad libitum for at least one week before the experiment.
After being anaesthetized with 3 ml/kg i.p. equitensin (pentobarbital 1.215 g, chloral hydrate 5.312 g, magnesium sulphate 2.657 g, ethanol 12.5 ml, propylene glycol 49.5 ml, distilled water to 125 ml of final volume), the rats were placed in a supine position and the bladder and urethra were exposed via an incision in the shaven abdomens and gently pulling away the muscle portion. The urethra was cannulated with a polyethylene tube with an outside diameter of 1.22 mm, and the urinary bladder was then emptied and, via the cannula introduced through the urethra, filled with physiological saline. A silk (Ethicon 3/0) ligature was placed around the urethra with the cannula inside and the intraurethral cannula was then removed. The abdominal incision was sutured and, immediately after the operative procedure, antibiotic medication (penicillin G 200 000 I.U./kg i.p. and streptomycin 260 mg/kg i.p.) was performed.
Three weeks after the procedure for partially obstructing the urethra, the animals were prepared for cystometry by surgical insertion into the bladder of a catheter, through which the bladder was gradually filled.
The rats, anaesthetised with equitensin 3 ml/kg i.p., were placed in a supine position and, via an incision of about 10 mm in the abdominal wall, the urinary bladder was exposed and gently freed from surrounding tissues.
The urinary bladder was emptied manually and cannulated, via a small incision at the bladder top, with a polyethylene cannula (type PE-50, 0.58 mm I.D. ×0.96 mm O.D.), which was permanently secured to the bladder with silk thread.
The cannula was exposed through a subcutaneous tunnel in the retroscapular area, where it was fastened with a plastic adapter, in order to avoid the risk of removal by the animal. After washing the urinary bladder with physiological saline, the catheter was sealed using a small flame and the abdominal incision was sutured.
To allow evaluation of the effect of a test compound after intravenous administration, the jugular vein was cannulated with a polyethylene cannula (type PE-50, 0.58 mm I.D.×0.96 mm O.D.) filled with heparinised physiological saline. As for the bladder catheter, this cannula, too, was exteriorised, secured and sealed in the retroscapular area.
Two days after the operation, the rats, fasted overnight, were placed in Bollman's cages or in Bollman's cages modified so as to have an opening in the bottom to allow collection of urinated fluid.
After an adaptation period of 20 minutes, the free end of the bladder cannula was connected to a pressure transducer and a special apparatus which allowed infusion into the urinary bladder of physiological saline at 37° C. at a constant rate of 10 ml/hour. Intravesical pressure changes caused by bladder filling were recorded by the pressure transducer which was connected to a recording polygraph.
From the cystometrograms, the frequency and mean amplitude of spontaneous bladder contractions not inducing micturition, termed “unstable-bladder contractions” (UBC), within 2 minutes prior to micturition were evaluated. […]

[3] = molecular target: T2, cloned α1d-adrenoceptor subtype (Homo sapiens, UniProt P25100); assay: Radioligand binding assay ([3H]prazosin), cloned α1d-adrenoceptor subtype; conditions: read-out: Binding Affinity (Ki nM) α1d
T2 construct: expressed in transfected cells
T2 sequence (P25100 1-572): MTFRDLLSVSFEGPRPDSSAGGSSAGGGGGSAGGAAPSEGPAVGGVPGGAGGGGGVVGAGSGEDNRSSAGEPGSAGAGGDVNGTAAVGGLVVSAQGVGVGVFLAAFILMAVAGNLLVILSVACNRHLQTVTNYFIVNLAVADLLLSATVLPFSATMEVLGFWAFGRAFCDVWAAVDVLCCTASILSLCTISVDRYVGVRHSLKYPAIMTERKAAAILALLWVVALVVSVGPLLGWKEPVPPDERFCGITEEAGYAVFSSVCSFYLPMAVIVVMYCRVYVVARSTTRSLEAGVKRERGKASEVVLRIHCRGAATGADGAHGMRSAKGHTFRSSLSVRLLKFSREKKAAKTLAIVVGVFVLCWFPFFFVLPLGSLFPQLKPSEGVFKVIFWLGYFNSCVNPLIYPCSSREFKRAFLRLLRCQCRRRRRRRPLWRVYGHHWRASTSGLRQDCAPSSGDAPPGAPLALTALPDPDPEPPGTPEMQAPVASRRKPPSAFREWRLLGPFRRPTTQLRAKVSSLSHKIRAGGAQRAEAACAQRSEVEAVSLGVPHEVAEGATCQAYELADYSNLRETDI
Method: as §1, §2, §3

[4] = molecular target: T3, cloned α1a-adrenoceptor subtype (Homo sapiens, UniProt P35348); assay: Radioligand binding assay ([3H]prazosin), cloned α1a-adrenoceptor subtype; conditions: read-out: Binding Affinity (Ki nM) α1a
T3 construct: expressed in transfected cells
T3 sequence (P35348 1-466): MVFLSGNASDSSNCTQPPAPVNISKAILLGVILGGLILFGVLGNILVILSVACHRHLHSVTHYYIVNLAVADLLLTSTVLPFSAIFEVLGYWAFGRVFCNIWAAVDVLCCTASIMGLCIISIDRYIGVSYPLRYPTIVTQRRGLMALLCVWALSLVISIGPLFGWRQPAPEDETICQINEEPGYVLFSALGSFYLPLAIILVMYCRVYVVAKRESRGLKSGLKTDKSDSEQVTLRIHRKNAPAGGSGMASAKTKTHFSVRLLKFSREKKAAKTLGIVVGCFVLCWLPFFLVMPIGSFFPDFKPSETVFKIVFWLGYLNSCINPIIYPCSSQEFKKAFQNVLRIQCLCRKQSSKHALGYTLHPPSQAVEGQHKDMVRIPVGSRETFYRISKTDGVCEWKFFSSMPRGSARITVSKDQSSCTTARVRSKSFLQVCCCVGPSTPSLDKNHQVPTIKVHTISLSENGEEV
Method: as §1, §2, §3

[5] = cloned receptor, cell membranes, 0.2 nM [3H]prazosin, mean Ki
[6] = obstructed rat, 1 mg/kg, 2 minutes before micturition, read-out: % inhibition of amplitude of non-effective micturition contractions
[7] = obstructed rat, 1 mg/kg, 2 minutes before micturition, read-out: % inhibition of frequency of non-effective micturition contractions
[8] = obstructed rat, 0.3 mg/kg, 2 minutes before micturition, read-out: % inhibition of amplitude of non-effective micturition contractions
[9] = obstructed rat, 0.3 mg/kg, 2 minutes before micturition, read-out: % inhibition of frequency of non-effective micturition contractions
[10] = Rattus norvegicus, read-out: % inhibition of amplitude of non-effective micturition contractions
[11] = Rattus norvegicus, read-out: % inhibition of frequency of non-effective micturition contractions

| SMILES | Ki [3] | Ki [4] | Ki [1] | inhibition in vivo at 1 mg/kg [2, 6] | inhibition in vivo at 1 mg/kg [2, 7] | Amplitude of non-effective micturition contractions, After Treat. ([2]; 1.0 mg/kg) | Frequency (number) of non-effective micturition contractions, After Treat. ([2]; 1.0 mg/kg) | Activity as inhibitors of unstable-bladder contractions (in words) [2] | other results |
| --- | --- | --- | --- | --- | --- | --- | --- | --- | --- |
| Cc1onc(-c2ccccc2Cl)c1C(=O)NCCCN1CCN(c2ccccc2OCC(F)(F)F)CC1 [Compound D, 3-(2-chlorophenyl)-5-methyl-N-{3-[4-[2-(2,2,2-trifluoroethoxy)phenyl]-1-piperazinyl]propy}isoxazole-4-carboxamide] | 0.49 nM | 0.07 nM | 14.1 nM | 73% | 68% | 2.1 ± 0.7 mmHg | 1.7 ± 0.8 | more potent | – |
| O=C1CC2(CCCC2)CCN1CCN1CCN(c2cc(Cl)ccc2Cl)CC1 [Rec 26D/073] | 0.11 nM | – | 11 nM | 18% | 25% | 7.5 ± 1.2 mmHg | 4.4 ± 0.7 | poorly active | inhibition in vivo at 0.3 mg/kg [2, 8]: 16%; inhibition in vivo at 0.3 mg/kg [2, 9]: 31%; Amplitude of non-effective micturition contractions, After Treat. ([2]; 0.3 mg/kg): 6.2 ± 1.6 mmHg; Frequency (number) of non-effective micturition contractions, After Treat. ([2]; 0.3 mg/kg): 2.8 ± 0.7 |
| Cc1onc(-c2ccccc2)c1C(=O)NCCCN1CCN(c2ccc(F)cc2OCC(F)(F)F)CC1 [Rec 27/0110] | 18.9 nM | 0.35 nM | – | – | – | 6.0 ± 1.4 mmHg | 4.4 ± 0.8 | poorly active | Ki [1, 5]: 69 nM; inhibition in vivo at 1 mg/kg [2, 10]: 21%; inhibition in vivo at 3 mg/kg [2, 10]: 53%; inhibition in vivo at 1 mg/kg [2, 11]: 27%; inhibition in vivo at 3 mg/kg [2, 11]: 49%; Amplitude of non-effective micturition contractions, After Treat. ([2]; 3.0 mg/kg): 2.3 ± 0.8 mmHg; Frequency (number) of non-effective micturition contractions, After Treat. ([2]; 3.0 mg/kg): 2.2 ± 0.7 |
| CCOc1ccccc1OCCN[C@H](C)Cc1ccc(OC)c(S(N)(=O)=O)c1 [Tamsulosin, tamsulosin] | – | – | 0.94 nM | – | – | – | – | very potent | inhibition in vivo at 0.1 mg/kg ([2]; obstructed rat, 0.1 mg/kg, 2 minutes before micturition, read-out: % inhibition of amplitude of non-effective micturition contractions): 52%; inhibition in vivo at 0.1 mg/kg ([2]; obstructed rat, 0.1 mg/kg, 2 minutes before micturition, read-out: % inhibition of frequency of non-effective micturition contractions): 61%; Amplitude of non-effective micturition contractions, After Treat. ([2]; 0.1 mg/kg): 3.7 ± 1.1 mmHg; Frequency (number) of non-effective micturition contractions, After Treat. ([2]; 0.1 mg/kg): 1.9 ± 0.7; Ki [3, 5]: 0.16 nM |

Continued by falling Ki [3], values first:

| Ki [3] | Ki [4] | Ki [1] | SMILES | inhibition in vivo at 1 mg/kg [2, 6] | inhibition in vivo at 1 mg/kg [2, 7] | Amplitude of non-effective micturition contractions, After Treat. ([2]; 1.0 mg/kg) | Frequency (number) of non-effective micturition contractions, After Treat. ([2]; 1.0 mg/kg) | Activity as inhibitors of unstable-bladder contractions (in words) [2] | other results |
| --- | --- | --- | --- | --- | --- | --- | --- | --- | --- |
| 2.7 nM | 0.8 nM | – | COc1ccc(Cl)cc1N1CCN(CCCNC(=O)c2c(-c3ccccc3)noc2C)CC1 [Compound B, N-{3-[4-(5-Chloro-2-methoxyphenyl)-1-piperazinyl]propyl}-5-methyl-3-phenylisoxazole-4-carboxamide] | 44% | 49% | 4.2 ± 1.0 mmHg | 3.0 ± 0.7 | more potent | Ki [1, 5]: 23.6 nM |
| 0.33 nM | 0.05 nM | – | Cc1onc(-c2ccccc2)c1C(=O)NCCCN1CCN(c2cc(F)ccc2OCC(F)(F)F)CC1 [Compound C, N-{3-[4-[5-fluoro-2-(2,2,2-trifluoroethoxy)phenyl]-1-piperazinyl]propyl}-3-phenyl-5-methylisoxazole-4-carboxamide] | – | – | – | – | – | – |
| 0.13 nM | – | 19 nM | O=C1CC2(CCCC2)CC(=O)N1CCN1CCN(c2cc(Cl)ccc2Cl)CC1 [Rec 26D/038] | 21% | 27% | 7.5 ± 1.6 mmHg | 4.5 ± 1.2 | poorly active | inhibition in vivo at 0.3 mg/kg [2, 8]: 39%; inhibition in vivo at 0.3 mg/kg [2, 9]: 38%; Amplitude of non-effective micturition contractions, After Treat. ([2]; 0.3 mg/kg): 6.6 ± 1.5 mmHg; Frequency (number) of non-effective micturition contractions, After Treat. ([2]; 0.3 mg/kg): 3.6 ± 0.7 |

Source: patent publication US20020183290A1, “Adrenergic receptor antagonists selective for both alpha1A-and alpha1D-subtypes and uses therefor” (Recordati S.A., Chemical and Pharmaceutical Company, priority 2001, published 2002)
